Experimental data published in PMC10999543, “Identification of kinase modulators as host-directed therapeutics against intracellular methicillin-resistant Staphylococcus aureus” (Frontiers in Cellular and Infection Microbiology, 2024).
Where two headings read alike, the source gives them in different places.

How the values were obtained:
HeLa cells = assay: Compound screen by flow cytometry: HeLa cell count as surrogate readout of cell viability (z-scoreHeLa); type: cell-based, human; conditions: for cell count rep 1 / z-scoreHeLa rep 1: replicate 1; for cell count rep 2 / z-scoreHeLa rep 2: replicate 2; for cell count rep 3 / z-scoreHeLa rep 3: replicate 3; for z-scoreHeLa mean: mean of 3 replicates
Procedure, shortened: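 The viability surrogate was the count of fixed HeLa cells by flow cytometry, converted to z-scores against DMSO controls with values deviating two-fold excluded. Before counting, cells had been infected with MRSA for 1 h and cleared of extracellular bacteria with gentamicin. They were then exposed overnight to kinase inhibitors in triplicate.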

intracellular MRSA = type: cell-based, Staphylococcus aureus; conditions: for %GFP+ rep 1 / z-scoreMRSA+ rep 1: replicate 1; for %GFP+ rep 2 / z-scoreMRSA+ rep 2: replicate 2; for %GFP+ rep 3 / z-scoreMRSA+ rep 3: replicate 3; for z-scoreMRSA+ mean: mean of 3 replicates
Procedure, shortened: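 HeLa cells were infected with GFP-expressing MRSA (mean MOI 6.8) for 1 h, treated with 30 µg/ml gentamicin for 15 min, then incubated overnight at 37°C with kinase inhibitors and 5 µg/ml gentamicin. Flow cytometry gave % GFP-positive cells, with cell count as viability. Hits were z-score ≤ -2 (infection) and ≥ -3 (count) versus DMSO.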

[1] = PKIS compound screen raw data, HeLa cell count
[2] = compound screen, HeLa cell count
[3] = PKIS compound screen raw data, MRSA-infected HeLa cells
[4] = Yes/No: effect without cell death
[5] = compound screen, MRSA-infected HeLa cells
[6] = PKIS compound screen, HeLa cell count
[7] = PKIS compound screen, Yes/No call on z-scoreHeLa
[8] = PKIS compound screen, MRSA-infected HeLa cells
[9] = PKIS compound screen, Yes/No call (effect without cell death)
[10] = PKIS compound screen, Yes/No call on z-scoreMRSA+
[11] = PKIS compounds raw data, HeLa cell count
[12] = PKIS compounds raw data, MRSA-infected HeLa cells
[13] = PKIS compound screen, Yes/No call

## NCCCC(NC(=O)c1cc(Br)c(-c2ccnc3[nH]ccc23)s1)c1ccccc1 (stereo not shown) [GSK1287544A]
HeLa cells; [1]
  cell count rep 1: 6296
  cell count rep 2: 6004
  cell count rep 3: 7754
HeLa cells; Yes/No call from z-scoreHeLa
  cell death: No
HeLa cells; [2]
  z-scoreHeLa mean: 1.43
  z-scoreHeLa rep 1: 1.40
  z-scoreHeLa rep 2: 1.31
  z-scoreHeLa rep 3: 1.59
Intracellular MRSA; [3]
  %GFP+ rep 1: 26.9%
  %GFP+ rep 2: 27.6%
  %GFP+ rep 3: 25.5%
Intracellular MRSA; Yes/No call from z-scoreMRSA+
  effect: No
Intracellular MRSA; [4]
  hit: No
Intracellular MRSA; [5]
  z-scoreMRSA+ mean: 0.86
  z-scoreMRSA+ rep 1: 0.38
  z-scoreMRSA+ rep 2: 1.21
  z-scoreMRSA+ rep 3: 0.99

## OCCCNc1nccc(-c2c(-c3ccc(F)cc3)nn3cc(C(F)(F)F)ccc23)n1 [GW569293E]
HeLa cells; [1]
  cell count rep 1: 13158
  cell count rep 2: 40183
  cell count rep 3: 38241
HeLa cells; [6]
  z-scoreHeLa mean: -0.14
  z-scoreHeLa rep 1: -1.06
  z-scoreHeLa rep 2: 1.01
  z-scoreHeLa rep 3: -0.36
HeLa cells; [7]
  cell death: No
Intracellular MRSA; [3]
  %GFP+ rep 1: 17.0%
  %GFP+ rep 2: 16.9%
  %GFP+ rep 3: 19.3%
Intracellular MRSA; [8]
  z-scoreMRSA+ mean: -0.30
  z-scoreMRSA+ rep 1: -0.27
  z-scoreMRSA+ rep 2: -0.49
  z-scoreMRSA+ rep 3: -0.15
Intracellular MRSA; [9]
  hit: No
Intracellular MRSA; [10]
  effect: No

## Fc1cccc(COc2ccc(Nc3ncnc4sc(-c5ccc[nH]5)cc34)cc2Cl)c1 [GW707818B]
HeLa cells; [11]
  cell count rep 1: 5915
  cell count rep 2: 6344
  cell count rep 3: 7651
HeLa cells; Yes/No call from z-scoreHeLa
  cell death: No
HeLa cells; [2]
  z-scoreHeLa mean: 1.41
  z-scoreHeLa rep 1: 1.13
  z-scoreHeLa rep 2: 1.57
  z-scoreHeLa rep 3: 1.52
Intracellular MRSA; [12]
  %GFP+ rep 1: 24.9%
  %GFP+ rep 2: 22.3%
  %GFP+ rep 3: 25.1%
Intracellular MRSA; Yes/No call from z-scoreMRSA+
  effect: No
Intracellular MRSA; [4]
  hit: No
Intracellular MRSA; [5]
  z-scoreMRSA+ mean: 0.24
  z-scoreMRSA+ rep 1: -0.09
  z-scoreMRSA+ rep 2: -0.0758
  z-scoreMRSA+ rep 3: 0.87

## Fc1ccc(-c2ncn(C3CCNCC3)c2-c2ccnc(Oc3ccc(F)c(F)c3)n2)cc1 [SB-253228]
HeLa cells; [1]
  cell count rep 1: 9973
  cell count rep 2: 28239
  cell count rep 3: 36229
HeLa cells; [6]
  z-scoreHeLa mean: -1.15
  z-scoreHeLa rep 1: -1.54
  z-scoreHeLa rep 2: -1.22
  z-scoreHeLa rep 3: -0.68
HeLa cells; [7]
  cell death: No
Intracellular MRSA; [3]
  %GFP+ rep 1: 13.5%
  %GFP+ rep 2: 14.9%
  %GFP+ rep 3: 15.9%
Intracellular MRSA; [8]
  z-scoreMRSA+ mean: -1.22
  z-scoreMRSA+ rep 1: -1.38
  z-scoreMRSA+ rep 2: -1.09
  z-scoreMRSA+ rep 3: -1.18
Intracellular MRSA; [9]
  hit: No
Intracellular MRSA; [10]
  effect: No

## Nc1nonc1-c1nc2cnccc2n1C1CCCCC1 [SB-734117]
HeLa cells; [11]
  cell count rep 1: 2677
  cell count rep 2: 2902
  cell count rep 3: 5031
HeLa cells; Yes/No call from z-scoreHeLa
  cell death: No
HeLa cells; [2]
  z-scoreHeLa mean: -1.28
  z-scoreHeLa rep 1: -1.90
  z-scoreHeLa rep 2: -1.03
  z-scoreHeLa rep 3: -0.92
Intracellular MRSA; [12]
  %GFP+ rep 1: 14.7%
  %GFP+ rep 2: 14.0%
  %GFP+ rep 3: 13.2%
Intracellular MRSA; Yes/No call from z-scoreMRSA+
  effect: No
Intracellular MRSA; [4]
  hit: No
Intracellular MRSA; [5]
  z-scoreMRSA+ mean: -0.0455
  z-scoreMRSA+ rep 1: 0.49
  z-scoreMRSA+ rep 2: 0.17
  z-scoreMRSA+ rep 3: -0.79

## COc1cc(Nc2nccc(N3CCC(NC(=O)Nc4cccc(C(C)=O)c4)C3)n2)cc(OC)c1OC (stereo not shown) [GSK1379753A]
HeLa cells; [1]
  cell count rep 1: 28035
  cell count rep 2: 28667
  cell count rep 3: 17453
HeLa cells; [6]
  z-scoreHeLa mean: -0.0237
  z-scoreHeLa rep 1: -0.37
  z-scoreHeLa rep 2: 0.58
  z-scoreHeLa rep 3: -0.29
HeLa cells; [7]
  cell death: No
Intracellular MRSA; [3]
  %GFP+ rep 1: 19.3%
  %GFP+ rep 2: 19.5%
  %GFP+ rep 3: 18.4%
Intracellular MRSA; [8]
  z-scoreMRSA+ mean: -0.20
  z-scoreMRSA+ rep 1: 0.14
  z-scoreMRSA+ rep 2: 0.025
  z-scoreMRSA+ rep 3: -0.77
Intracellular MRSA; [9]
  hit: No
Intracellular MRSA; [10]
  effect: No

## COc1cc(Nc2ccnc3ccc(C(F)(F)F)cc23)cc(OC)c1OC [GW577382X]
HeLa cells; [1]
  cell count rep 1: 2914
  cell count rep 2: 2336
  cell count rep 3: 2608
HeLa cells; Yes/No call from z-scoreHeLa
  cell death: No
HeLa cells; [2]
  z-scoreHeLa mean: -1.40
  z-scoreHeLa rep 1: -1.04
  z-scoreHeLa rep 2: -1.51
  z-scoreHeLa rep 3: -1.66
Intracellular MRSA; [3]
  %GFP+ rep 1: 19.6%
  %GFP+ rep 2: 17.8%
  %GFP+ rep 3: 18.8%
Intracellular MRSA; Yes/No call from z-scoreMRSA+
  effect: No
Intracellular MRSA; [4]
  hit: No
Intracellular MRSA; [5]
  z-scoreMRSA+ mean: -1.17
  z-scoreMRSA+ rep 1: -1.32
  z-scoreMRSA+ rep 2: -1.17
  z-scoreMRSA+ rep 3: -1.02

## COc1ccccc1-c1cc(/C=C2\C(=O)Nc3ncc(Br)cc32)cc(Br)c1O [GW442130X]
HeLa cells; [11]
  cell count rep 1: 3648
  cell count rep 2: 4731
  cell count rep 3: 6669
HeLa cells; Yes/No call from z-scoreHeLa
  cell death: No
HeLa cells; [2]
  z-scoreHeLa mean: -0.27
  z-scoreHeLa rep 1: -1.02
  z-scoreHeLa rep 2: 0.35
  z-scoreHeLa rep 3: -0.14
Intracellular MRSA; [12]
  %GFP+ rep 1: 14.9%
  %GFP+ rep 2: 16.4%
  %GFP+ rep 3: 14.1%
Intracellular MRSA; Yes/No call from z-scoreMRSA+
  effect: No
Intracellular MRSA; [4]
  hit: No
Intracellular MRSA; [5]
  z-scoreMRSA+ mean: 0.33
  z-scoreMRSA+ rep 1: 0.55
  z-scoreMRSA+ rep 2: 0.97
  z-scoreMRSA+ rep 3: -0.53

## NS(=O)(=O)c1cccc(-c2cc3ccncc3cc2OCc2ccccc2)c1 [GSK980961A]
HeLa cells; [1]
  cell count rep 1: 14876
  cell count rep 2: 28602
  cell count rep 3: 41262
HeLa cells; [6]
  z-scoreHeLa mean: -0.61
  z-scoreHeLa rep 1: -0.80
  z-scoreHeLa rep 2: -1.15
  z-scoreHeLa rep 3: 0.12
HeLa cells; [7]
  cell death: No
Intracellular MRSA; [3]
  %GFP+ rep 1: 13.7%
  %GFP+ rep 2: 14.8%
  %GFP+ rep 3: 15.5%
Intracellular MRSA; [8]
  z-scoreMRSA+ mean: -1.25
  z-scoreMRSA+ rep 1: -1.32
  z-scoreMRSA+ rep 2: -1.12
  z-scoreMRSA+ rep 3: -1.31
Intracellular MRSA; [9]
  hit: No
Intracellular MRSA; [10]
  effect: No

## O=c1cc(N2CCOCC2)nc2n(Cc3cccc(Cl)c3Cl)c(C3CC3)nn12 [GSK2358994A]
HeLa cells; [1]
  cell count rep 1: 42747
  cell count rep 2: 35107
  cell count rep 3: 37884
HeLa cells; [6]
  z-scoreHeLa mean: 2.50
  z-scoreHeLa rep 1: 2.13
  z-scoreHeLa rep 2: 1.69
  z-scoreHeLa rep 3: 3.69
HeLa cells; [7]
  cell death: No
Intracellular MRSA; [3]
  %GFP+ rep 1: 12.1%
  %GFP+ rep 2: 13.2%
  %GFP+ rep 3: 14.9%
Intracellular MRSA; [8]
  z-scoreMRSA+ mean: -1.74
  z-scoreMRSA+ rep 1: -1.78
  z-scoreMRSA+ rep 2: -1.70
  z-scoreMRSA+ rep 3: -1.73
Intracellular MRSA; [9]
  hit: No
Intracellular MRSA; [10]
  effect: No

## Cc1cc(NCC(c2ccccc2)c2ccccc2)nc(NCc2ccc(C(F)(F)F)cc2)n1 [GW497681X]
HeLa cells; [1]
  cell count rep 1: 17665
  cell count rep 2: 6230
  cell count rep 3: 5782
HeLa cells; [6]
  z-scoreHeLa mean: -2.65
  z-scoreHeLa rep 1: -2.12
  z-scoreHeLa rep 2: -3.27
  z-scoreHeLa rep 3: -2.56
HeLa cells; [13]
  cell death: No
HeLa cells; [7]
  cell death: No
HeLa cells; PKIS compound screen
  z-scoreHeLa mean: -2.45
  z-scoreHeLa rep 1: -2.37
  z-scoreHeLa rep 2: -3.07
  z-scoreHeLa rep 3: -1.91
HeLa cells; [11]
  cell count rep 1: 2106
  cell count rep 2: 1381
  cell count rep 3: 2577
Intracellular MRSA; [3]
  %GFP+ rep 1: 20.1%
  %GFP+ rep 2: 18.7%
  %GFP+ rep 3: 19.8%
Intracellular MRSA; [8]
  z-scoreMRSA+ mean: -0.08
  z-scoreMRSA+ rep 1: 0.35
  z-scoreMRSA+ rep 2: -0.19
  z-scoreMRSA+ rep 3: -0.39
Intracellular MRSA; [13]
  effect: No
Intracellular MRSA; [9]
  hit: No
Intracellular MRSA; [10]
  effect: No
Intracellular MRSA; PKIS compound screen
  z-scoreMRSA+ mean: -1.09
  z-scoreMRSA+ rep 1: -0.81
  z-scoreMRSA+ rep 2: -1.24
  z-scoreMRSA+ rep 3: -1.24
Intracellular MRSA; [12]
  %GFP+ rep 1: 22.9%
  %GFP+ rep 2: 19.6%
  %GFP+ rep 3: 20.6%

## CS(=O)(=O)CCNCc1nc(-c2ccc3ncnc(Nc4ccc(OCc5cccc(F)c5)c(Cl)c4)c3c2)cs1 [GW583340C]
HeLa cells; [11]
  cell count rep 1: 5969
  cell count rep 2: 5507
  cell count rep 3: 7162
HeLa cells; Yes/No call from z-scoreHeLa
  cell death: No
HeLa cells; [2]
  z-scoreHeLa mean: 1.10
  z-scoreHeLa rep 1: 1.17
  z-scoreHeLa rep 2: 0.93
  z-scoreHeLa rep 3: 1.22
Intracellular MRSA; [12]
  %GFP+ rep 1: 17.5%
  %GFP+ rep 2: 15.0%
  %GFP+ rep 3: 17.3%
Intracellular MRSA; Yes/No call from z-scoreMRSA+
  effect: No
Intracellular MRSA; [4]
  hit: No
Intracellular MRSA; [5]
  z-scoreMRSA+ mean: -1.71
  z-scoreMRSA+ rep 1: -1.81
  z-scoreMRSA+ rep 2: -1.85
  z-scoreMRSA+ rep 3: -1.47
